Data published in ChEMBL document CHEMBL1201862, “PubChem BioAssay data set” (2004).
Activity calls are given as the source filed them. Cut-off read from the data, not from the text of the source, for most assays here: actives have a measured IC50 and inactives only a lower limit.

How the values were obtained:
[1] = molecular target: ALK tyrosine kinase receptor (Homo sapiens, UniProt Q9UM73); assay type: functional;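 note: ALK tested as one member of a kinase panel screen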
[2] = molecular target: Cyclin-dependent kinase 19 (Homo sapiens, UniProt Q9BWU1); assay: Navigating the Kinome. Panel member name: CDC2L6; assay type: functional
Sequence of Cyclin-dependent kinase 19 (Q9BWU1 whole entry): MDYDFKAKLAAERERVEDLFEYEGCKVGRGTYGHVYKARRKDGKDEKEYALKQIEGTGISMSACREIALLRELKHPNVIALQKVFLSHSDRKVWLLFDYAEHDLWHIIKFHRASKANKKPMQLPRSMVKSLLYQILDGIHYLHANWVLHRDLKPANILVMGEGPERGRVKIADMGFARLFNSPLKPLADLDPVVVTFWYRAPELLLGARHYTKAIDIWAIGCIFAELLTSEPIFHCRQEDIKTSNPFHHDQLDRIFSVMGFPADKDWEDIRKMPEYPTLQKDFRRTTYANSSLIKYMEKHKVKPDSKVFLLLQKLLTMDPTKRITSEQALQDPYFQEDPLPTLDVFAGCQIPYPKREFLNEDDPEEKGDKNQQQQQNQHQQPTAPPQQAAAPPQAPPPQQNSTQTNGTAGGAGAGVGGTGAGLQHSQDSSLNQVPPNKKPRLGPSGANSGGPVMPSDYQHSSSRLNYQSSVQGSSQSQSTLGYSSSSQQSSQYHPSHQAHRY

[3] = molecular target: T1, Sentrin-specific protease 8 (Homo sapiens, UniProt Q96LD8); assay: SENP8 protease inhibitors, SAR follow-up, biochemical, luminescence (AID 504501); assay type: functional
T1 sequence (Q96LD8 whole entry): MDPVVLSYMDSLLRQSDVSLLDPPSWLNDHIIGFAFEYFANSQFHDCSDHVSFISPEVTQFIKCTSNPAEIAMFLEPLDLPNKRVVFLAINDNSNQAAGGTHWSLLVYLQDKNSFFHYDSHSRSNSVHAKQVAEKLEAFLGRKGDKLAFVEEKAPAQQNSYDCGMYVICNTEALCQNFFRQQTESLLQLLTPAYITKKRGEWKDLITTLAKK

[4] = molecular target: T2, Caspase-3 (Homo sapiens, UniProt P42574); assay: SAR Analysis of small molecule inhibitors of Sentrin-specific proteases (SENPs) using a Caspase-3 Selectivity assay. [Related pubchem assays (depositor defined):AID2540, AID2599, AID434973, AID489001]; assay type: functional
T2 sequence (P42574 whole entry): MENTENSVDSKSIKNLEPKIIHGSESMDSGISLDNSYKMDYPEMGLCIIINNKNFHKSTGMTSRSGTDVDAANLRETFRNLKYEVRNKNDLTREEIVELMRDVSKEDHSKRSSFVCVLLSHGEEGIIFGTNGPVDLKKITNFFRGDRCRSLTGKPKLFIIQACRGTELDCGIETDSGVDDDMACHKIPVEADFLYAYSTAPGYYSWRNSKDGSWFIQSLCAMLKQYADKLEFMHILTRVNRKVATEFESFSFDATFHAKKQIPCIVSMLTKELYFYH

[5] = molecular target: T3, Sentrin-specific protease 6 (Homo sapiens, UniProt Q9GZR1); assay: SAR Analysis of small molecule inhibitors of Sentrin-specific protease 6 (SENP6) using a Luminescent assay. [Related pubchem assays (depositor defined):AID2582, AID2599]; assay type: functional
T3 sequence (Q9GZR1 whole entry): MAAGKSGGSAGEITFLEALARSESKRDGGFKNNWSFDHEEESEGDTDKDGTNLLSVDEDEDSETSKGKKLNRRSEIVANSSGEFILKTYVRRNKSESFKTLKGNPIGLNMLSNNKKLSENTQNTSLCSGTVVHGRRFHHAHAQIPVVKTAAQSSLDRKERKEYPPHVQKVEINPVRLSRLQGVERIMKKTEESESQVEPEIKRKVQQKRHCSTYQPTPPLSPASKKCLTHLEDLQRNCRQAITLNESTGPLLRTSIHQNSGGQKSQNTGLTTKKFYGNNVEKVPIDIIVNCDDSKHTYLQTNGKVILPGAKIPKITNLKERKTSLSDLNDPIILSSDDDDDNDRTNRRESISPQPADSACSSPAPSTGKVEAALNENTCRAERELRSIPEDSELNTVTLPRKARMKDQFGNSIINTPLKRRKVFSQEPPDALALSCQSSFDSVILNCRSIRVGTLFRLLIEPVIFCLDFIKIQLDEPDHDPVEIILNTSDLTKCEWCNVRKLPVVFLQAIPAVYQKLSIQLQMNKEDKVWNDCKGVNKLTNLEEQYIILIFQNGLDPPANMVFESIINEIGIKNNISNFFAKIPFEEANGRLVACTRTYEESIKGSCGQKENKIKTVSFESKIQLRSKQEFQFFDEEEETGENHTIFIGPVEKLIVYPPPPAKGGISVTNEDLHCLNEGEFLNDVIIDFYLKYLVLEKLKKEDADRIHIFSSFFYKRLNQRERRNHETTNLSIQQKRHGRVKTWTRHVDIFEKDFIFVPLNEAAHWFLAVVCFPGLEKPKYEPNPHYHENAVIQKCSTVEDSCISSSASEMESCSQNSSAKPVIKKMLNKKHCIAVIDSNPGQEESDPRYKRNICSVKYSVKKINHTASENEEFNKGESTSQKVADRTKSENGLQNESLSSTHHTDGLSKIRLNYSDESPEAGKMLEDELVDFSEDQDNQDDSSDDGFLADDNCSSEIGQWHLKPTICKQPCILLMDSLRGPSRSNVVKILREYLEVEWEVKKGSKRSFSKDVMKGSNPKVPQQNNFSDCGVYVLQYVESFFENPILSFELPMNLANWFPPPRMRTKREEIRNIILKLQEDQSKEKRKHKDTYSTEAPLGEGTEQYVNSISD

[6] = molecular target: T4, Sentrin-specific protease 7 (Homo sapiens, UniProt Q9BQF6); assay: SENP7 protease inhibitors, SAR follow-up, biochemical, luminescence (AID 504497); assay type: functional
T4 sequence (Q9BQF6 whole entry): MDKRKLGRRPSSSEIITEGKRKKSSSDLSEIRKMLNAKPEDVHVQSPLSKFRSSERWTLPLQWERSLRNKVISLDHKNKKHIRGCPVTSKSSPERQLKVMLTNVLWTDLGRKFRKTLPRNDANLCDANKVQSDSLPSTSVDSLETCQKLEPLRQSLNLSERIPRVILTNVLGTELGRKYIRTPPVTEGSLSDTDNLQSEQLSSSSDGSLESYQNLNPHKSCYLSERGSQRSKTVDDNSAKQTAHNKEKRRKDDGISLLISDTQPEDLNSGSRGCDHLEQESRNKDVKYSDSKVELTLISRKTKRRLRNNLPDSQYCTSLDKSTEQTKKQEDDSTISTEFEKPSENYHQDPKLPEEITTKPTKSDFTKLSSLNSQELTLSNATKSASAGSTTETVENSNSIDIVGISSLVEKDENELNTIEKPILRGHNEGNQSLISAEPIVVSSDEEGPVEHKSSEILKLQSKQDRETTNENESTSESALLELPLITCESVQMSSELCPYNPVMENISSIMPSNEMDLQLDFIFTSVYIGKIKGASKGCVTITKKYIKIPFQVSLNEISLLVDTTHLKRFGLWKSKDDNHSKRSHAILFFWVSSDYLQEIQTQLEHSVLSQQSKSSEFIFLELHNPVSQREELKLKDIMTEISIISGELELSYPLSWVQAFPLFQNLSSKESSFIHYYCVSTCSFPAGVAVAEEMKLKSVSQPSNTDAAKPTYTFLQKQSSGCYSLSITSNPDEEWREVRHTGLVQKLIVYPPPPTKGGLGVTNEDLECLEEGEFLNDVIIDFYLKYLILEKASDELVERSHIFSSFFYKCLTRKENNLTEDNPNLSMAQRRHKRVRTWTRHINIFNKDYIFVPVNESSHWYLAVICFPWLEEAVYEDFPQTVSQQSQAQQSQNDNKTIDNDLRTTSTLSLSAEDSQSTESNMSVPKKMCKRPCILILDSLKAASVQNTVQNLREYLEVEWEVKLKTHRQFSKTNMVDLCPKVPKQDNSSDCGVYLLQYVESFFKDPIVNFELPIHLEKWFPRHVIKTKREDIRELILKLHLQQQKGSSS

[7] = system: HEK293; assay: NOD1 signaling inhibitors, primary screen, cell-based, luminescence, uHTS (AID 1578); assay type: functional; conditions: Homo sapiens
[8] = system: HEK293; assay: cells; assay type: functional, cell-based; conditions: Homo sapiens
[9] = system: HEK293; assay: cells; assay type: functional, cell-based; conditions: Homo sapiens; remark: listed apart in the source
[10] = molecular target: Nucleotide-binding oligomerization domain-containing protein 2 (Homo sapiens, UniProt Q9HC29); assay: NOD2 signaling inhibitors, cell-based, luminescence, uHTS, HEK293 (AID 1566); assay type: functional
Sequence of Nucleotide-binding oligomerization domain-containing protein 2 (Q9HC29 whole entry, the tested form may be a part): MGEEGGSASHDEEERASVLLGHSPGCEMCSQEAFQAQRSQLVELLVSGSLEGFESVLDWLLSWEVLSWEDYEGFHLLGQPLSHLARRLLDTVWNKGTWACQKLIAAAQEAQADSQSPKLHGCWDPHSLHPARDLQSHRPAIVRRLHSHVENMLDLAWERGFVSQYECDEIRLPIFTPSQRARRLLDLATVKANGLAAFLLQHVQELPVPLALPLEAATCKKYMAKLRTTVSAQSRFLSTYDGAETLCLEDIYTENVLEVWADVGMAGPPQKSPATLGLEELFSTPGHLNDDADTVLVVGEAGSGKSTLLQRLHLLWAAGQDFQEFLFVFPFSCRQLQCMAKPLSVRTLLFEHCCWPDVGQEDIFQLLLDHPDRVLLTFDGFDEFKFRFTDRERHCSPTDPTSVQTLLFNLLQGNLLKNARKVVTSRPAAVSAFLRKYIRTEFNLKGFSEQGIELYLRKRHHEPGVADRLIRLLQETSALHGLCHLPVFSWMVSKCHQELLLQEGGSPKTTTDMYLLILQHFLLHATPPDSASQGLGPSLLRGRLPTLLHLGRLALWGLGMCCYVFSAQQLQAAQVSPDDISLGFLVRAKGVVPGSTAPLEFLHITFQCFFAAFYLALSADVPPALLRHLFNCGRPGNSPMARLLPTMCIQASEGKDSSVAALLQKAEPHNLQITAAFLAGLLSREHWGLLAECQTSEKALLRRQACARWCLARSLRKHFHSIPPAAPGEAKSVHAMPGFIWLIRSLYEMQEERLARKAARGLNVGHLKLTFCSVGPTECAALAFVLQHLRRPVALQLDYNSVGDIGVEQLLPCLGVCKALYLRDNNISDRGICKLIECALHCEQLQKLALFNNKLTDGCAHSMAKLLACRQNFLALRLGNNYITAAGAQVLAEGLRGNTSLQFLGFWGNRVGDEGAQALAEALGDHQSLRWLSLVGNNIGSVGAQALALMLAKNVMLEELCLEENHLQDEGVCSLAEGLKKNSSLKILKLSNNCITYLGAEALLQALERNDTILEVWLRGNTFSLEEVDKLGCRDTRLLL

[11] = system: HEK293; assay: NOD2 signaling inhibitors in MDP-stimulated cells, cell-based, uHTS, luminescence (AID 2001); assay type: functional; conditions: Homo sapiens
[12] = system: HEK293; assay: cells; assay type: functional, cell-based; conditions: Homo sapiens; remark: listed apart in the source
[13] = molecular target: Tumor necrosis factor (Homo sapiens, UniProt P01375); assay: TNFa-triggered NF-kB activation inhibitors, SAR follow-up, cell-based, revised (AID 2337); assay type: functional
Sequence of Tumor necrosis factor (P01375 whole entry, the tested form may be a part): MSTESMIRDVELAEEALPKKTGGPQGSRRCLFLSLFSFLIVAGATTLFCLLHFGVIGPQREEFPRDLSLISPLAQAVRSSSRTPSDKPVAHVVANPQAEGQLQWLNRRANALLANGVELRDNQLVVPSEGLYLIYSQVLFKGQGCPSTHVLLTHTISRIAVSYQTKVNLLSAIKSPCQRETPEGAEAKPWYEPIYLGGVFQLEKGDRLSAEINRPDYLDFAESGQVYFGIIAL

[14] = molecular target: T5, Nucleotide-binding oligomerization domain-containing protein 1 (Homo sapiens, UniProt Q9Y239); assay: NOD1 signaling inhibitors, SAR follow-up, revised (AID 2333); assay type: functional
T5 sequence (Q9Y239 whole entry): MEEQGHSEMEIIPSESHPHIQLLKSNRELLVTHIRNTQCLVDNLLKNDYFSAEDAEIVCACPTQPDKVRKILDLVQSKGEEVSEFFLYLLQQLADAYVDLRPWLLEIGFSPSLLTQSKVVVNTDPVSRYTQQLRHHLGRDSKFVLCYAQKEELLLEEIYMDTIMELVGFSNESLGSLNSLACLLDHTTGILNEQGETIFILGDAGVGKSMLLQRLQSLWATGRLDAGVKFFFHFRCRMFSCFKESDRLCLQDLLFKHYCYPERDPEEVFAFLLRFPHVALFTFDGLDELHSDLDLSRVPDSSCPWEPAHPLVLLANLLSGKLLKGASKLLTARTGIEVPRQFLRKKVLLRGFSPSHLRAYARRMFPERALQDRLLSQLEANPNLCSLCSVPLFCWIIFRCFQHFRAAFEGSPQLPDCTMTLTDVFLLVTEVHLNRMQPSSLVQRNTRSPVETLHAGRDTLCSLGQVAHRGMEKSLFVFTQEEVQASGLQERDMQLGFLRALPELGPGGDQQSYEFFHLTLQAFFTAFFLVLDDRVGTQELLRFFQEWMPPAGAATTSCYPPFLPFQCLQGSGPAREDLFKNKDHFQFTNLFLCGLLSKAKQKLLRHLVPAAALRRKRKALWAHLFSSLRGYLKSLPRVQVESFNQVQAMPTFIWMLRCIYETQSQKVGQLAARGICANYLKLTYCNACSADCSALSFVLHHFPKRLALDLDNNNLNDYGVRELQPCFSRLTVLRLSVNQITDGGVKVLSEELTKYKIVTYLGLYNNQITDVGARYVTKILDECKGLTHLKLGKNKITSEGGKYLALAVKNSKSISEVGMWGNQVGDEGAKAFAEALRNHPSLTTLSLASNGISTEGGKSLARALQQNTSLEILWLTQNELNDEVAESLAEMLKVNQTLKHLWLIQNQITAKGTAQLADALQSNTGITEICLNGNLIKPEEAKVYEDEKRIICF

[15] = system: HEK293; assay: inhibitors of LMP1-driven NF-kB reporter, dose response, cell-based, HEK293, luciferase, cherry-pick (AID 588343); assay type: functional; conditions: Homo sapiens
[16] = system: INS1; assay: beta cell apoptosis inhibitors, cytokine rescue, dose response, luminescence, retest (AID 449756); assay type: functional, cell-based; conditions: Rattus norvegicus;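 note: cell death triggered by IL-1 beta plus TNF-alpha plus IFN-gamma mixture; protective hits raise ATP signal compared with cytokine alone wells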
[17] = Shn3 3'UTR reporter inhibitors, dose response, cell-based, Clone20 osteoblasts, firefly luciferase, cherry-picked (AID 624132); assay type: functional;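 note: firefly luciferase luminescence from reporter carrying the Shn3 3'UTR in osteoblasts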
[18] = molecular target: 26S proteasome non-ATPase regulatory subunit 14 (Homo sapiens, UniProt O00487); assay: inhibition of proteasome subunit RPN11 – biochemical, fluorescence polarization, uHTS hits, confirmation (AID 602368); assay type: functional
Sequence of 26S proteasome non-ATPase regulatory subunit 14 (O00487 whole entry): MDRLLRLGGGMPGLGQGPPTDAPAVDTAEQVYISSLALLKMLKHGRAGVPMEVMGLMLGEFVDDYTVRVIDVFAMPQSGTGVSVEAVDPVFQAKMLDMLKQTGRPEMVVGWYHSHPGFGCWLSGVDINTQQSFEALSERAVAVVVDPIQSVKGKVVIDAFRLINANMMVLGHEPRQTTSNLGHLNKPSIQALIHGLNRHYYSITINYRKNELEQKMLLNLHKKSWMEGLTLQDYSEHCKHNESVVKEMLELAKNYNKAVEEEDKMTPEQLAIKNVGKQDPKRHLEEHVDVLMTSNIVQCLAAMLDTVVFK

[19] = HepG2 cell cytotoxicity, dose response, cytotoxicity control for Shn3 inhibitor project, CellTiter-Glo, cherry-picked (AID 624134); assay type: functional, cell-based
[20] = control 3'UTR Renilla luciferase suppression, dose response, counter-screen for Shn3 inhibitor project, cell-based, Clone20-Shn3RL, cherry-picked (AID 624133); assay type: functional
[21] = molecular target: 72 kDa type IV collagenase (Homo sapiens, UniProt P08253); assay: Dose Response validation of uHTS RPN11 inhibitor hits using a MMP-2 Fluorescence assay.; assay type: functional
Sequence of 72 kDa type IV collagenase (P08253 whole entry): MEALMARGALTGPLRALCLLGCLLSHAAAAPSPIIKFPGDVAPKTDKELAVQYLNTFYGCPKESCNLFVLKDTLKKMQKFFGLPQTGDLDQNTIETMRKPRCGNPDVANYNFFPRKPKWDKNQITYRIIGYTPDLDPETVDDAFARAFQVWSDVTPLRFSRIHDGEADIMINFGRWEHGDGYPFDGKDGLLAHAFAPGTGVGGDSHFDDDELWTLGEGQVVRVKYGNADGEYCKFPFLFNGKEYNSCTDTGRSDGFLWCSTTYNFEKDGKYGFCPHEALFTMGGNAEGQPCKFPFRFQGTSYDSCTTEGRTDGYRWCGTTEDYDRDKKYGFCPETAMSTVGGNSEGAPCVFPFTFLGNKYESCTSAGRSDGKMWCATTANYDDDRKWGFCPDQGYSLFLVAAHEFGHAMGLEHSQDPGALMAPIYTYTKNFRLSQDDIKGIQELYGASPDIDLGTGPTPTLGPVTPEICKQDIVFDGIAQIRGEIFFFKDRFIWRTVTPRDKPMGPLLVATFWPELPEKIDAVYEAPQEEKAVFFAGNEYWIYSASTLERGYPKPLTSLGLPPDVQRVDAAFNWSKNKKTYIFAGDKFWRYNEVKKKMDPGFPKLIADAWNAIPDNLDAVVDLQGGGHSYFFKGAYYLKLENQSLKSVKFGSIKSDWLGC

[22] = molecular target: Prothrombin (Bos taurus, UniProt P00735); assay: thrombin inhibition, dose response, biochemical, fluorescence polarization, uHTS hits (AID 602369); assay type: functional
[23] = system: HEK293; assay: cells; conditions: Homo sapiens

Sequence of ALK tyrosine kinase receptor (Q9UM73 whole entry): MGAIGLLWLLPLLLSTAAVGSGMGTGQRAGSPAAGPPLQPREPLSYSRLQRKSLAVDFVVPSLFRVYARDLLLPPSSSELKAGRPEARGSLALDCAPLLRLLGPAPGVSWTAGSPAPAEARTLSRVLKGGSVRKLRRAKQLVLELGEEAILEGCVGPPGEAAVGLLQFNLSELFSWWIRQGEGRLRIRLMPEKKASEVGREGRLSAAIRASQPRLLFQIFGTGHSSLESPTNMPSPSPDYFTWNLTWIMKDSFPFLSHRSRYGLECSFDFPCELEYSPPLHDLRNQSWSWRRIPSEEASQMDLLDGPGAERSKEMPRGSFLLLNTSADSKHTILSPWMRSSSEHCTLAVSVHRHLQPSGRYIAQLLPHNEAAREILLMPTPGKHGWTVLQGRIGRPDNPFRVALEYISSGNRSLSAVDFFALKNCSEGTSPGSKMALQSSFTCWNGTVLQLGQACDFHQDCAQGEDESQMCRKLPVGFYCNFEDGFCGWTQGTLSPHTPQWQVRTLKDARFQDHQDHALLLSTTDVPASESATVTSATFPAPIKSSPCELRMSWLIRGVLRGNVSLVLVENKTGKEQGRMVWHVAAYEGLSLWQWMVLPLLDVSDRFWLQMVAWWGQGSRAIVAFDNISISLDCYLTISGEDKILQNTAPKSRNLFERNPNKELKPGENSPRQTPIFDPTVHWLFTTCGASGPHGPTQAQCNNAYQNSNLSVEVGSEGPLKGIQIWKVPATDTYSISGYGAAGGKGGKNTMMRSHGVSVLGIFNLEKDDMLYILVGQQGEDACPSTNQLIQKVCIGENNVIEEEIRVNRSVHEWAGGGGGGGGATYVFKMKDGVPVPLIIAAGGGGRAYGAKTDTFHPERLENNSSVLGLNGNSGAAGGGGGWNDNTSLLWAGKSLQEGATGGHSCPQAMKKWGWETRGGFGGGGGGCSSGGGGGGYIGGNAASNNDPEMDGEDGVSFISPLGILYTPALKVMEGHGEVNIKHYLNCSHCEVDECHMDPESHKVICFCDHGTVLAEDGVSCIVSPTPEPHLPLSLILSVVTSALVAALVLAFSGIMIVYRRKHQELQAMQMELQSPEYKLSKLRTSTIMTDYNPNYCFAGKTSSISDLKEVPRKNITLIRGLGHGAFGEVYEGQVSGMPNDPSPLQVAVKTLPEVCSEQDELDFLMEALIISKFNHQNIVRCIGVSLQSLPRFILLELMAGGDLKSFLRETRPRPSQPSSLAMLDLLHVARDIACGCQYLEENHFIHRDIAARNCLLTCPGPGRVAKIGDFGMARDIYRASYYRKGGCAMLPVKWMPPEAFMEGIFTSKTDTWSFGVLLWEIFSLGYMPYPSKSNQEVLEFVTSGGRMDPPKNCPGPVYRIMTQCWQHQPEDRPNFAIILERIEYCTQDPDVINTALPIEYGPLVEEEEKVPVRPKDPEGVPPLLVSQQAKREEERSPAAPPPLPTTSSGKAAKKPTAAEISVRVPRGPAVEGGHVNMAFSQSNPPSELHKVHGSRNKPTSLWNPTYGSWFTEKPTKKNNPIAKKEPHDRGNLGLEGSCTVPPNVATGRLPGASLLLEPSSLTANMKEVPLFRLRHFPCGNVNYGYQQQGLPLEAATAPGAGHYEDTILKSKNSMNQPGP

With `Cc1nn(-c2nc3ccccc3[nH]2)c(O)c1C1OC(=O)c2ccccc21` (configuration not stated) the Ki [1] was 0.2 µM (active) and the Ki [2] was 2 µM (active).
For `O=C(c1ccc(Cl)s1)N(Cc1cccnc1)c1nc2c(F)cc(F)cc2s1`, the IC50 [3] was > 99 µM (inactive), the IC50 [4] was > 99 µM (inactive) and the IC50 [5] was > 99 µM (inactive). The IC50 [6] was > 99 µM (inactive).
In the case of `Cc1ccc(NC(=O)C2CCN(S(=O)(=O)c3ccc4c(c3)NC(=O)C(C)S4)CC2)cc1Cl` (configuration not stated), the EC50 [7] is reported as 5.35 µM (active), the IC50 [8] is reported as 2.72 µM (active) and the IC50 [9] is reported as 4.25 µM (active). For the same compound, the EC50 [10] was 8.36 µM (active), the IC50 [11] was 2.94 µM (inactive) and the IC50 [12] was > 20 µM (inactive). For the same compound, the IC50 [13] was 2.84 µM (active), the IC50 [14] was 2.87 µM (active) and the AC50 [15] was 15.3 µM (active). The AC50 [16] was 3.7 µM (active), the AC50 [17] was 2.83 µM (active) and the IC50 [18] was 49.4 µM (active). For the same compound, the AC50 [19] was 6.82 µM (active), the AC50 [20] was 2.48 µM (active) and the IC50 [21] was > 100 µM (inactive). The IC50 [22] was 46 µM (active) and the IC50 [23] was 5.08 µM (active).
With `Cc1ccc(C(=O)Nc2sc3c(c2C#N)CCCCCC3)o1` the IC50 [3] was > 99 µM (inactive), the IC50 [4] was > 99 µM (inactive) and the IC50 [5] was > 99 µM (inactive). The IC50 [6] was 39.1 µM (active).
